# Key:
# [1] = molecular target: T1, TGFBR2 (Homo sapiens, UniProt P37173); assay: TR-FRET LanthaScreen Eu Kinase Binding Assay (tracer […]; reported as kinase activity inhibition); supported by MST, DARTS on recombinant protein, CETSA
# T1 construct: MST used recombinant human TGFBR2 ECD
# T1 sequence (P37173 188-567 limits assumed): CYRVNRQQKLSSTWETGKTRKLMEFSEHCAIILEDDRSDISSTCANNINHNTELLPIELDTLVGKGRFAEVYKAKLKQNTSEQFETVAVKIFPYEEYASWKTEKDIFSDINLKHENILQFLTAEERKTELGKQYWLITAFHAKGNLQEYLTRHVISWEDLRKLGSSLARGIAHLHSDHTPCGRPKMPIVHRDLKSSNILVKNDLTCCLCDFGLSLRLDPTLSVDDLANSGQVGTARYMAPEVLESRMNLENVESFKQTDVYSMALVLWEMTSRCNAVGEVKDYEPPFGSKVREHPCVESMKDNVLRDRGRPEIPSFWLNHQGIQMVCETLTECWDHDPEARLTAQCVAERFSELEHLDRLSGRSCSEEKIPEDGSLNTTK
# [2] = molecular target: T2, TGFBR2 K252R (Homo sapiens, UniProt P37173, K252R); assay: DARTS (protection from pronase) in OS cells expressing the mutant; format: cell-based
# T2 construct: TGFBR2 K252R overexpression plasmid transfected into OS cells
# T2 sequence (P37173 23-567 K252R): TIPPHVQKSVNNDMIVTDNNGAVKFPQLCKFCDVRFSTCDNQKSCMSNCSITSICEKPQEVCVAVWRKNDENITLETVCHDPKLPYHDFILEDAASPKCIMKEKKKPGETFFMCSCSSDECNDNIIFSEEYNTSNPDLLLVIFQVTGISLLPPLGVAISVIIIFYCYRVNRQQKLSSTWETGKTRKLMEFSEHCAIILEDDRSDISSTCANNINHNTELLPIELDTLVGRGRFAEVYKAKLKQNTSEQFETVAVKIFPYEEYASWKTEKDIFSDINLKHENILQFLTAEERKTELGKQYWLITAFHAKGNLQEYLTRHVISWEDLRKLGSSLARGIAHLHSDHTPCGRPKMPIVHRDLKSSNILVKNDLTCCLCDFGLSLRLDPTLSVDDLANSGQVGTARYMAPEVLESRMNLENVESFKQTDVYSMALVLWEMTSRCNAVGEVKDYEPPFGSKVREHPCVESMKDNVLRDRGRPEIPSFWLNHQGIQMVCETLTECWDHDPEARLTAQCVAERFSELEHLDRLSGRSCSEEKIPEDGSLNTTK
smiles,measurement,setting,value
"CC(C)[C@H]1OC(=O)[C@H](Cc2ccccc2)N(C)C(=O)[C@@H](C(C)C)OC(=O)[C@H](Cc2ccccc2)N(C)C(=O)[C@@H](C(C)C)OC(=O)[C@H](Cc2ccccc2)N(C)C1=O [BEA, beauvericin]",IC50,[1],1.36 ± 0.21 µM
same,DARTS (protection from pronase) in OS cells expressing the mutant,[2],"BEA suppressed the pronase-induced degradation of TGFBR2^K252R (Figure S7A-B), indicating that BEA may bind to TGFBR2 at N332"
